From PMC9287381, “Structure-based rational design of an enhanced fluorogen-activating protein for fluorogens based on GFP chromophore” (Communications Biology, 2022)
Numbering of substitutions follows the chain as printed.

Tests used:
Experiment in all cases: spectrofluorometric titration of protein with chromophore
pFAST = molecular target: T1, pFAST; assay type: binding, Halorhodospira halophila; details: 0.10 µM protein, 25 °C
T1 construct: gene pyp; multipoint directed-evolution variant of FAST (itself engineered PYP); E. coli BL21(DE3)
Description: spectrofluorometric titration of protein with chromophore on pFAST

[1] = molecular target: T2, FAST (Fluorescence-Activating and absorption-Shifting Tag) (Halorhodospira halophila, UniProt P16113, C69G/Y94W/T95M/F96I/D97P/Y98T/Q99E/M100R/T101G); assay type: binding; details: 0.10 µM protein, 25 °C
T2 construct: gene pyp; engineered full-length PYP variant (~14 kDa); E. coli BL21(DE3)
T2 sequence (P16113 1-125 C69G/Y94W/T95M/F96I/D97P/Y98T/Q99E/M100R/T101G): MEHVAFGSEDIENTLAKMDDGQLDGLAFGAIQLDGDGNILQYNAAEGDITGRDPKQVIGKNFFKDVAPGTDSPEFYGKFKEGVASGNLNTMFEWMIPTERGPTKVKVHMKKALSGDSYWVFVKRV

[2] = molecular target: T3, FAST (Fluorescence-Activating and absorption-Shifting Tag) (Halorhodospira halophila, UniProt P16113, R52E/D65R/C69G/Y94W/T95M/F96I/D97P/Y98T/Q99S/M100R/T101G); assay type: binding; details: 0.10 µM protein, 25 °C
T3 construct: gene pyp; engineered full-length PYP variant (~14 kDa); E. coli BL21(DE3)
T3 sequence (P16113 1-125 R52E/D65R/C69G/Y94W/T95M/F96I/D97P/Y98T/Q99S/M100R/T101G): T2 sequence (P16113 1-125 C69G/Y94W/T95M/F96I/D97P/Y98T/Q99E/M100R/T101G) with R52E, D65R, E99S
Description: (§1) spectrofluorometric titration of protein with chromophore on FAST (Fluorescence-Activating and absorption-Shifting Tag) | studied their properties in complex with N871b fluorogen

[3] = molecular target: T4, FAST (Fluorescence-Activating and absorption-Shifting Tag) (Halorhodospira halophila, UniProt P16113, R52E/C69G/Y94W/T95M/F96I/D97P/Y98T/Q99S/M100R/T101G); assay type: binding; details: 0.10 µM protein, 25 °C
T4 construct: gene pyp; engineered full-length PYP variant (~14 kDa); E. coli BL21(DE3)
T4 sequence (P16113 1-125 R52E/C69G/Y94W/T95M/F96I/D97P/Y98T/Q99S/M100R/T101G): T2 sequence (P16113 1-125 C69G/Y94W/T95M/F96I/D97P/Y98T/Q99E/M100R/T101G) with R52E, E99S
Description: as §1

[4] = molecular target: T5, FAST (Fluorescence-Activating and absorption-Shifting Tag) (Halorhodospira halophila, UniProt P16113, C69G/Y94W/T95M/F96I/D97P/Y98T/Q99K/M100R/T101G); assay type: binding; details: 0.10 µM protein, 25 °C
T5 construct: gene pyp; engineered full-length PYP variant (~14 kDa); E. coli BL21(DE3)
T5 sequence (P16113 1-125 C69G/Y94W/T95M/F96I/D97P/Y98T/Q99K/M100R/T101G): T2 sequence (P16113 1-125 C69G/Y94W/T95M/F96I/D97P/Y98T/Q99E/M100R/T101G) with E99K

[5] = molecular target: T6, FAST (Fluorescence-Activating and absorption-Shifting Tag) (Halorhodospira halophila, UniProt P16113, D65K/C69G/Y94W/T95M/F96I/D97P/Y98T/Q99S/M100R/T101G); assay type: binding; details: 0.10 µM protein, 25 °C
T6 construct: gene pyp; engineered full-length PYP variant (~14 kDa); E. coli BL21(DE3)
T6 sequence (P16113 1-125 D65K/C69G/Y94W/T95M/F96I/D97P/Y98T/Q99S/M100R/T101G): T2 sequence (P16113 1-125 C69G/Y94W/T95M/F96I/D97P/Y98T/Q99E/M100R/T101G) with D65K, E99S
Description: (§2) spectrofluorometric titration of protein with chromophore on FAST (Fluorescence-Activating and absorption-Shifting Tag) | all the S99 mutants, P73S, P68K, D65K

[6] = molecular target: T7, FAST (Fluorescence-Activating and absorption-Shifting Tag) (Halorhodospira halophila, UniProt P16113, P68K/C69G/Y94W/T95M/F96I/D97P/Y98T/Q99S/M100R/T101G); assay type: binding; details: 0.10 µM protein, 25 °C
T7 construct: gene pyp; engineered full-length PYP variant (~14 kDa); E. coli BL21(DE3)
T7 sequence (P16113 1-125 P68K/C69G/Y94W/T95M/F96I/D97P/Y98T/Q99S/M100R/T101G): T2 sequence (P16113 1-125 C69G/Y94W/T95M/F96I/D97P/Y98T/Q99E/M100R/T101G) with P68K, E99S
Description: as §2

[7] = molecular target: T8, FAST (Fluorescence-Activating and absorption-Shifting Tag) (Halorhodospira halophila, UniProt P16113, C69G/P73S/Y94W/T95M/F96I/D97P/Y98T/Q99S/M100R/T101G); assay type: binding; details: 0.10 µM protein, 25 °C
T8 construct: gene pyp; engineered full-length PYP variant (~14 kDa); E. coli BL21(DE3)
T8 sequence (P16113 1-125 C69G/P73S/Y94W/T95M/F96I/D97P/Y98T/Q99S/M100R/T101G): T2 sequence (P16113 1-125 C69G/Y94W/T95M/F96I/D97P/Y98T/Q99E/M100R/T101G) with P73S, E99S
Description: as §2

[8] = molecular target: T9, FAST (Fluorescence-Activating and absorption-Shifting Tag) (Halorhodospira halophila, UniProt P16113, C69G/D97P/F96I/M100R/Q99S/R52Y/T101G/T95M/Y94W/Y98T); assay type: binding
T9 construct: gene pyp; engineered full-length PYP variant (~14 kDa); E. coli BL21(DE3)
T9 sequence (P16113 1-125 R52Y/C69G/Y94W/T95M/F96I/D97P/Y98T/Q99S/M100R/T101G): T2 sequence (P16113 1-125 C69G/Y94W/T95M/F96I/D97P/Y98T/Q99E/M100R/T101G) with R52Y, E99S
Description: (§3) spectrofluorometric titration of protein with chromophore on FAST (Fluorescence-Activating and absorption-Shifting Tag)

[9] = molecular target: T10, FAST (Fluorescence-Activating and absorption-Shifting Tag) (Halorhodospira halophila, UniProt P16113, C69G/Y94W/T95M/F96I/D97P/Y98T/Q99S/M100R/T101G); assay type: binding; details: 0.10 µM protein, 25 °C
T10 construct: gene pyp; engineered full-length PYP variant (~14 kDa); E. coli BL21(DE3)
T10 sequence (P16113 1-125 C69G/Y94W/T95M/F96I/D97P/Y98T/Q99S/M100R/T101G): T2 sequence (P16113 1-125 C69G/Y94W/T95M/F96I/D97P/Y98T/Q99E/M100R/T101G) with E99S
Description: as §3

[10] = molecular target: T11, FAST (Fluorescence-Activating and absorption-Shifting Tag) (Halorhodospira halophila, UniProt P16113, R52L/C69G/Y94W/T95M/F96I/D97P/Y98T/Q99S/M100R/T101G); assay type: binding; details: 0.10 µM protein, 25 °C
T11 construct: gene pyp; engineered full-length PYP variant (~14 kDa); E. coli BL21(DE3)
T11 sequence (P16113 1-125 R52L/C69G/Y94W/T95M/F96I/D97P/Y98T/Q99S/M100R/T101G): T2 sequence (P16113 1-125 C69G/Y94W/T95M/F96I/D97P/Y98T/Q99E/M100R/T101G) with R52L, E99S
Description: as §3

[11] = molecular target: T12, FAST (Fluorescence-Activating and absorption-Shifting Tag) (Halorhodospira halophila, UniProt P16113, C69G/Y94W/T95M/F96I/D97P/Y98T/Q99R/M100R/T101G); assay type: binding; details: 0.10 µM protein, 25 °C
T12 construct: gene pyp; engineered full-length PYP variant (~14 kDa); E. coli BL21(DE3)
T12 sequence (P16113 1-125 C69G/Y94W/T95M/F96I/D97P/Y98T/Q99R/M100R/T101G): T2 sequence (P16113 1-125 C69G/Y94W/T95M/F96I/D97P/Y98T/Q99E/M100R/T101G) with E99R

[12] = molecular target: T13, FAST (Fluorescence-Activating and absorption-Shifting Tag) (Halorhodospira halophila, UniProt P16113, R52Y/C69G/Y94W/T95M/F96I/D97P/Y98T/Q99S/M100R/T101G); assay type: binding; details: 0.10 µM protein, 25 °C
T13 construct: gene pyp; engineered full-length PYP variant (~14 kDa); E. coli BL21(DE3)
T13 sequence (P16113 1-125 R52Y/C69G/Y94W/T95M/F96I/D97P/Y98T/Q99S/M100R/T101G): T2 sequence (P16113 1-125 C69G/Y94W/T95M/F96I/D97P/Y98T/Q99E/M100R/T101G) with R52Y, E99S
Description: as §3

Structure (SMILES) | Kd (pFAST) [µM] | Kd [1] [nM] | Kd [2] [nM] | Kd [3] [nM] | Kd [4] [nM] | Kd [5] [nM] | Kd [6] [nM] | Kd [7] [nM] | Kd [8] [µM] | Kd [9] [µM] | Kd [10] [µM] | Kd [11] [nM] | Kd [12] [µM]
COc1cc(O)ccc1/C=C1N=C(/C=C/c2ccncc2)N(C)C\1=O [N871b] | 0.04 ± 0.002 | 210 ± 10 | 1360 ± 220 | 1300 ± 70 | 270 ± 10 | 250 ± 10 | 220 ± 10 | 170 ± 10 | 0.24 ± 0.02 | 0.33 ± 0.01 | 0.27 ± 0.01 | 240 ± 10 | –
COc1cc(O)ccc1/C=C1\N=C2C=C(/C=C/c3ccncc3)C=CN2C1=O [MCL.3a] | 0.025 ± 0.002 | – | – | – | – | – | – | – | – | 0.08 ± 0.01 | 0.06 ± 0.01 | – | 0.11 ± 0.02
COc1cc(O)ccc1/C=C1N=C(/C=C/c2ccccn2)N(C)C\1=O [MCL.1f] | 0.029 ± 0.005 | – | – | – | – | – | – | – | 0.31 ± 0.05 | 0.27 ± 0.04 | 0.39 ± 0.1 | – | –
COc1cc(O)ccc1/C=C1N=C(/C=C/c2cccs2)N(C)C\1=O [MCL.1b] | 0.023 ± 0.003 | – | – | – | – | – | – | – | 0.27 ± 0.06 | 0.2 ± 0.04 | 0.44 ± 0.2 | – | –
